Experimental data reported in publication PMC7016908 (ACS Omega, 2020).
Values joined by “and” are separate entries in the source; they are usually repeats but may differ in a detail not shown here. Identical values can stand only once. “Also recorded” adds a separate entry of the source.

Columns and labels:
LSD-trained rats = details: ref [6],[7]; cited from earlier work
5-HT2A receptor [1] = details: ref Trachsel et al., 2009 [23]; cited from earlier work
5-HT2A receptor [2] = details: ref Trachsel et al., 2009 [23]; cited from earlier work; remark: listed apart in the source
human 5-HT2A receptor [3] = biological target: T1, human 5-HT2A receptor (Homo sapiens, UniProt P28223); experiment: biochemical; type: binding; details: for displacement of [3H]ketanserin from the human 5-HT2A receptor: at 10 μM concentration
human 5-HT2C receptor [4] = biological target: T2, human 5-HT2C receptor (Homo sapiens, UniProt P28335); experiment: Radioligand displacement binding, [3H]mesulergine, HeLa-5-HT2C cell membranes; details: for Ki: [3H]mesulergine displacement, mean ± range of two independent assays; for 5-HT2A/2C: ratio of Ki 5-HT2A / Ki 5-HT2C; for selectivity for the 5-HT2C receptor: 5-HT2C over 5-HT2A
T2 sequence (P28335 33-458): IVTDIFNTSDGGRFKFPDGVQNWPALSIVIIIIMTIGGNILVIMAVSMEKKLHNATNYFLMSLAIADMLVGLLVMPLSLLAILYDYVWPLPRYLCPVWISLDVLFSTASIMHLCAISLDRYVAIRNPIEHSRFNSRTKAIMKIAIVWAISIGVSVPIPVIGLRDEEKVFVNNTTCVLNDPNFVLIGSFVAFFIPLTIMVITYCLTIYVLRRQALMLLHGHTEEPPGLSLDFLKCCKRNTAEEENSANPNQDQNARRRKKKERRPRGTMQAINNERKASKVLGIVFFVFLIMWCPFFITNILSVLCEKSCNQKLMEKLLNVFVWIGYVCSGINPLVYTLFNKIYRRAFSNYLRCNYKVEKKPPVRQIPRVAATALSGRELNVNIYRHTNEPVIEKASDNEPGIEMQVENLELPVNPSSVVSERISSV

human 5-HT2A receptor [5] = biological target: T1, human 5-HT2A receptor; experiment: Functional Ca2+ mobilization fluorescence assay in CHO-5-HT2A cells; type: cell-based; details: for Emax at 100 µM: read-out: % Emax 5-HT2A, % maximum response (5-HT) at 100 μM; for agonist character at 5-HT2A receptor: in words
human 5-HT2C receptor [6] = biological target: T2, human 5-HT2C receptor; experiment: Functional Ca2+ mobilization fluorescence assay in HeLa-5-HT2C cells; type: cell-based; details: for agonist character at 5-HT2C receptor: functional assay, in words; for Emax at 100 µM: read-out: % Emax 5-HT2C
[7] = hydrochlorides; ref [12],[13]; cited from earlier work

T1 sequence (P28223 whole entry): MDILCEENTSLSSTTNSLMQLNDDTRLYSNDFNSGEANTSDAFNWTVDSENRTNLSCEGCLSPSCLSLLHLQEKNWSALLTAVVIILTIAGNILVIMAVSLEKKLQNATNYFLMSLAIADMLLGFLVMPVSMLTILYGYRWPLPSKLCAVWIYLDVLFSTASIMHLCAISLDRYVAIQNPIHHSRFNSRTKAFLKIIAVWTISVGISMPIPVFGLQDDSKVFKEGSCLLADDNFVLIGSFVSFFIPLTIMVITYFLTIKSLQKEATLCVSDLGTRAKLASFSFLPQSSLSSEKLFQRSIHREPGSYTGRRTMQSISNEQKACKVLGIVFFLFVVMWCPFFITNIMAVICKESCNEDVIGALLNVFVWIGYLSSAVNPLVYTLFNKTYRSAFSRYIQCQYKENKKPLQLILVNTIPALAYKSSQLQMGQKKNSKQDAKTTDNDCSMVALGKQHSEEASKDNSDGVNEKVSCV

SMILES	Ki (human 5-HT2A receptor [3]) [nM]	displacement of [3H]ketanserin from the human 5-HT2A receptor (human 5-HT2A receptor [3]) [%]	Ki at the human 5-HT2C receptor (in words) (human 5-HT2C receptor [4])	Ki (human 5-HT2C receptor [4]; Ki 5-HT2C)	5-HT2A/2C (human 5-HT2C receptor [4])	EC50 (human 5-HT2A receptor [5]) [nM]	Emax at 100 µM (human 5-HT2A receptor [5]) [%]	agonist character at 5-HT2C receptor (human 5-HT2C receptor [6])	Emax at 100 µM (human 5-HT2C receptor [6]) [%]	EC50 (human 5-HT2C receptor [6]) [nM]	other results
NCCc1c2c(cc3c1OCC3)OCC2 [2C-H-Fly]	–	–	–	–	–	–	–	–	–	–	drug discrimination response (LSD-trained rats): positive drug discrimination response
COc1cc(-c2ccccc2)c(OC)cc1CCN [2C-phenyl, 2-(2,5-dimethoxy-4-phenylphenyl)ethanamine]	–	–	–	–	–	–	–	–	–	–	pKi at the 5-HT2A receptor (5-HT2A receptor [1]): 6.11; functional character at 5-HT2A receptor (5-HT2A receptor [2]): antagonist
Cl.NCCc1ccc2oc3ccccc3c2c1 [Compound 1, 2-(Dibenzo[b,d]furan-2-yl)ethanamine Hydrochloride]	> 10000	< 50	submicromolar	737 nM	> > 14	22600	66.1	extremely weak partial agonists	49.1	–	toxicity (in words) [7]: toxic
CC(N)Cc1ccc2oc3ccccc3c2c1.Cl (centres unmarked) [Compound 2, 1-(Dibenzo[b,d]furan-2-yl)propan-2-amine Hydrochloride]	> 10000	< 50	submicromolar	474 nM	> > 21	–	64	moderately potent full agonist activity	112	3520 ± 740	–
COc1cc2c(cc1CCN)oc1ccccc12.Cl [Compound 3, 2-(2-Methoxydibenzo[b,d]furan-3-yl)ethanamine Hydrochloride]	> 10000	< 50	submicromolar	204 nM	> 49	32400	58.2	extremely weak partial agonists	54	53200	agonist character at 5-HT2A receptor (human 5-HT2A receptor [5]; functional assay): very weak partial agonist; toxicity (in words) [7]: toxic
Cl.NCCc1cccc2c1oc1ccccc12 [Compound 4, 2-(Dibenzo[b,d]furan-4-yl)ethanamine Hydrochloride]	> 10000	< 50	submicromolar	140 nM	> 71	3330 ± 830	–	moderately potent full agonist activity; also recorded: full agonists	98	1380 ± 190	selectivity for the 5-HT2C receptor (human 5-HT2C receptor [4]): > 70 fold; Ki (human 5-HT2C receptor [4]; pKi 5-HT2C): 145 nM; % Emax 5-HT2A (human 5-HT2A receptor [5]; % maximum response (5-HT) at 100 μM): 88.21 ± 2.79%; EC50 at 5-HT2A receptor (in words) (human 5-HT2A receptor [5]; functional assay): low micromolar
COc1ccc2oc3ccccc3c2c1CCN.Cl [Compound 5, 2-(2-Methoxydibenzo[b,d]furan-1-yl)ethanamine Hydrochloride]	2550	–	–	35 nM and 35.3 nM	72	14500	59	full agonists	106	222 ± 41	Ki at the h5-HT2A receptor (in words) (human 5-HT2A receptor [3]): low micromolar; selectivity for the 5-HT2C receptor (human 5-HT2C receptor [4]): > 70 fold; agonist character at 5-HT2A receptor (human 5-HT2A receptor [5]; functional assay): partial agonist; times weaker as agonist at 5-HT2A than at 5-HT2C (human 5-HT2A receptor [5]; functional potency 5-HT2A vs 5-HT2C): 70 times
